Laboratory results from PubChem BioAssay (NCI).
Where “and” joins values, the source holds several entries; their conditions need not be identical. Equal entries are not always repeated.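 All cell lines were grown in 96-well plates and treated with compound for 48 hours. Abbreviation: GI50, concentration required for 50% inhibition of growth. TGI is the concentration that stops growth completely.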

Assays:
Experiment in all cases: NCI tumour cell line growth inhibition, 48 h
[1] = test system: SNB-78 CNS
[2] = test system: LXFL 529 NSCLC
[3] = test system: DLD-1 colon
[4] = test system: XF 498 CNS
[5] = test system: DMS 114 small cell lung
[6] = test system: KM20L2 colon
[7] = test system: DMS 273 small cell lung
[8] = test system: RXF-631 renal
[9] = test system: MDA-N

Structure (SMILES)	TGI [1]	TGI [2]	TGI [3]	TGI [4]	TGI [5]	TGI [6]	TGI [7]	TGI [8]	also measured
CC(=O)CC(=O)N(CCN(C(=O)CC(C)=O)c1ccccc1)c1ccccc1	> 100 µM	> 100 µM	> 100 µM	> 100 µM	> 100 µM	> 100 µM	–	–	–
CN1CCC23c4c5ccc(O)c4OC2C(=NN=C2CCC4(O)C6Cc7ccc(O)c8c7C4(CCN6C)C2O8)CCC3(O)C1C5 (configuration not stated)	–	> 100 µM	> 100 µM	> 100 µM	> 100 µM	> 100 µM	> 100 µM	> 100 µM	–
CC1=CC(=O)C(C)(C2=NC(C)(C)CO2)c2ccccc21 (configuration not stated)	–	> 100 µM	> 100 µM	–	> 100 µM	> 100 µM	–	> 100 µM	–
NC1=NC(=O)N2CC12 (configuration not stated)	–	> 100 µM	> 100 µM	> 100 µM	> 100 µM	> 100 µM	> 100 µM	–	–
O=S(=O)(/C=C/C=C/S(=O)(=O)c1ccccc1)c1ccccc1	–	–	–	–	–	–	–	–	GI50 [9]: 1400 nM; TGI [9]: 2.88 µM and 7.28 µM
O=c1c(O)c(-c2ccc(O)c(O)c2)oc2cc(O)ccc12	67.2 µM	> 87.7 µM	> 100 µM	44.1 µM	55.1 µM	73.2 µM	28.2 µM	–	–
CCOC(=O)C1Cc2c(ccc(OC)c2OC)C(=O)C1N (configuration not stated)	> 100 µM	> 100 µM	> 100 µM	> 100 µM	> 100 µM	> 100 µM	> 100 µM	> 100 µM	–
Cc1cc(Cl)ccc1Nc1sc(C(=O)c2cc3cc(Cl)ccc3o2)c(N)c1C#N	–	–	–	–	–	–	–	–	TGI [9]: > 100 µM
CCC[CH2][Sn]1([CH2]CCC)[O]C(c2ccccn2)S(=O)(=O)[O]1 (configuration not stated)	5.86 µM	2.92 µM	12.7 µM	3.55 µM	–	20.2 µM	15.5 µM	2.64 µM	GI50 [1]: 1600 nM; GI50 [2]: 1.54 µM; GI50 [3]: 3.31 µM; GI50 [7]: 3.29 µM; GI50 [4]: 2080 nM; GI50 [6]: 6.65 µM; GI50 [8]: 1300 nM
O=C(O)/C(Cl)=C(\Cl)Nc1cccc(C(F)(F)F)c1	> 100 µM	> 100 µM	> 100 µM	> 100 µM	> 100 µM	> 100 µM	> 100 µM	–	–
CC1(C)CCC(=O)c2c(O)ccc(O)c21	> 100 µM	> 100 µM	–	–	–	> 100 µM	> 100 µM	–	–
CCCCCCCCCOC(=S)NC	–	34.8 µM	34.9 µM	35.3 µM	–	32.5 µM	33.6 µM	49.5 µM	–
CC(=O)[CH-]C(=O)c1ccccc1.CC(=O)[CH-]C(=O)c1ccccc1.O=C([O-])C[O-].O=C([O-])C[O-].[Ti+4]	–	> 100 µM	–	–	–	> 100 µM	–	–	GI50 [2]: 33.5 µM; GI50 [6]: 43.8 µM
C[C@H]1CCC/C=C/[C@@H]2C[C@H](O)C[C@H]2[C@H](O)[C@H](S(=O)c2ccc(O)cc2)CC(=O)O1 (some centres not stated)	–	–	–	–	–	–	–	–	GI50 [9]: 40.9 nM
CCc1ccccc1NC(=O)/C(CC(=O)c1c(C)n([O-])c2ccccc2[n+]1=O)=N\NS(=O)(=O)c1ccc(C)cc1	> 100 µM	> 100 µM	> 100 µM	–	30.3 µM	> 100 µM	> 100 µM	> 100 µM	–
CSc1ccc(-c2cn3ccsc3n2)c(O)c1	> 100 µM	> 82.2 µM	> 100 µM	> 100 µM	> 60.9 µM	> 100 µM	> 100 µM	> 100 µM	–
CC1=CC2=C(OCO1)C(=O)c1ccccc1C2=O	> 100 µM	52.8 µM	81.9 µM	–	12.1 µM	46.6 µM	26.7 µM	–	TGI [9]: 1.48 µM
C=C1C(=O)O[C@@H]2[C@H]1CC[C@H](C)[C@]1(O)CCC(=O)[C@@]21C	–	–	–	–	–	–	–	–	TGI [9]: > 10 µM
C/C(=N\O)c1sc(-n2nc(-c3ccccc3)cc2-c2ccccc2)nc1C	> 100 µM	16.3 µM	20.1 µM	–	22.8 µM	16.1 µM	49.6 µM	> 31.6 µM	–
Oc1c(Br)cc(Br)cc1CN(Cc1cc(Br)cc(Br)c1O)C1CCCCC1	–	–	–	–	–	–	–	–	TGI [9]: > 100 µM
CCCCCCCCCCCCCCCCC1=CC(=O)C=C(OC)C1=O	–	–	–	–	–	–	–	–	TGI [9]: > 100 µM
Cc1cc(N(CCC#N)CCC#N)ccc1/C=C1/CN(N2C(=O)/C(=C/c3ccc(N(CCC#N)CCC#N)cc3C)N=C2c2ccccc2)C(c2ccccc2)=N1	> 100 µM	> 100 µM	> 100 µM	> 100 µM	> 100 µM	> 100 µM	> 100 µM	–	–
Cc1cc(C)c(C(=O)O)c(N)c1O	–	> 100 µM	> 100 µM	–	> 100 µM	> 100 µM	> 100 µM	–	–
O=C(OC(C(=O)O)C(OC(=O)c1ccccc1)C(=O)O)c1ccccc1 (configuration not stated) (tested in a mixture with another compound)	> 100 µM	–	> 100 µM	–	–	> 100 µM and 88.7 µM	> 100 µM and 14.1 µM	–	TGI [9]: 43 µM
